Results: US6958345B2, “2-hydroxymethylcyclopropylidene methylpurines and -pyrimidines as antiviral agents” (The Regents of the University of Michigan, priority 1997, dated 2005)
Read-outs that look alike come from different tables or passages of the source.

Experiments:
HFF cells = experiment: Cytotoxicity in stationary HFF cells, microscopic inspection; assay type: cell-based, human
Experimental: (§1) Cells and viruses. The routine growth and passage of KB cells was performed in monolayer cultures using minimal essential medium (MEM) with either Hanks salts [MEM(H)] or Earle salts [MEM(E)] supplemented with 10% calf serum. The sodium bicarbonate concentration was varied to meet the buffering capacity required. Cultures of diploid human foreskin fibroblasts (HFF) or MRC-5 cells were grown in medium consisting of MEM(E) with 10% fetal bovine serum. Cells were passaged at 1:2 to 1:10 dilutions according to conventional procedures by using 0.05% trypsin plus 0.02% EDTA in a HEPES buffered salt solution (HBS) (Shipman, C., Jr., Proc. Soc. Exp. Biol. 130:305-310 (1969)) as described previously. Turk, S. R., et al., Antimicrob. Agents Chemother. 31:544-550 (1987). HFF and MRC-5 cells were passaged only at 1:2 dilutions. CEM cells were maintained in suspension culture as detailed previously. Kucera, L. S., et al., AIDS Res. Human Retroviruses 9:307-314 (1993).
(§2) Cytotoxicity assays. Two different assays were used to explore cytotoxicity of selected compounds as we have detailed previously. (i) Cytotoxicity produced in stationary HFF cells and in growing CEM cells was determined by microscopic inspection of cells used in plaque and RT assays which were not affected by the virus. Turk, S. R., et al., Antimicrob. Agents Chemother. 31:544-550 (1987). (ii) The effect of compounds during two population doublings of KB cells was determined by crystal violet staining and spectrophotometric quantitation of dye eluted from stained cells. Prichard, M. N., et al., Antimicrob. Agents Chemother. 35:1060-1065 (1991).
(§3) Data Analysis. Dose-response relationships were constructed by linearly regressing the percent inhibition of parameters derived in the preceding sections against log drug concentrations. Fifty-percent inhibitory (IC50) concentrations were calculated from the regression lines. Samples containing positive controls (acyclovir for HSV-1, ganciclovir for HCMV, and 2-acetylpyridine thiosemicarbazone for cytotoxicity) were used in all assays.

HIV-1 = HIV-1 reverse transcriptase assay in infected CEM cells; assay type: cell-based, strain IIIB of HIV-1; settings: reverse transcriptase assay, CEM cells; low moi (footnote c of the 5th table); read-out: HIV-1, IC50
Experimental: (d) HIV-1. Reverse transcriptase (RT) was employed as a marker for HIV-1. This assay measured the presence of HIV in supernatants of CEM cells infected with strain IIIB of HIV-1 by the amount of RT activity. Cells were grown, infected, and incubated in the presence of seven concentrations (one-half log10 dilutions) beginning at 1 or 100 μM of compounds to be assayed. Procedures and the RT assay were performed as detailed previously. Kucera, L. S., et al., AIDS Res. Human Retroviruses 9:307-314 (1993); White, E. L., et al., Antiviral Res. 16:257-266 (1991).

CEM cells = experiment: Cytotoxicity in growing CEM cells, microscopic inspection; assay type: cell-based
Experimental: as §1, §2, §3

KB cells = experiment: Cytotoxicity in KB cells, growth over two population doublings; assay type: cell-based
Experimental: as §1, §2, §3

HCMV [1] = experiment: HCMV plaque reduction assay in HFF cells; assay type: cell-based, Human CMV (HCMV); settings: HFF cells; plaque reduction
Experimental: as §1
(§4) Virological procedures. Stock HCMV was prepared by infecting HFF cells at a multiplicity of infection (m.o.i.) of <0.01 plaque-forming units (p.f.u.) per cell. Cell growth medium was changed every four days until cytopathology was evident in all cells (approximately 21 days). Supernatant fluids were retained as the virus stock. High titer HSV-1 stocks were prepared by infecting KB cells at an m.o.i. of <0.1 as detailed previously. Turk, S. R., et al., Antimicrob. Agents Chemother. 31:544-550 (1987). Virus titers were determined using monolayer cultures of HFF cells for HCMV and monolayer cultures of BSC-1 cells for HSV-1 as described earlier. Prichard, M. N., et al., J. Virol. Methods 28:101-106 (1990). Briefly, HFF or BSC-1 cells were planted as described above in 96-well cluster dishes and incubated overnight at 37° C. in a humidified 3% CO297% air atmosphere. The next day cultures were inoculated with HCMV or HSV-1 and serially diluted 1:3 across the remaining eleven columns of the 96-well plate. Cultures were incubated at 37° C. for 2 hr to permit virus adsorption and then virus inoculum was replaced with 0.2 mL of fresh medium. Cultures were incubated for seven days for HCMV, two or three days for HSV-1, medium was removed, and the cell sheets were stained with 0.1% crystal violet in 20% methanol. Plaques were enumerated under 20-fold magnification in wells having the dilution which gave 5 to 20 plaques per well. Virus titers were calculated according to the following Formula: Titer (p.f.u./mL)=number of plaques×5×3^n; where n represents the nth dilution of the virus used to infect the well in which plaques were enumerated.
(a) HCMV. The effect of compounds on the replication of HCMV has been measured using a plaque reduction assay. HFF cells in 24-well cluster dishes were infected with approximately 100 p.f.u. of HCMV per cm^2 cell sheet using the procedures detailed above. Following virus adsorption, compounds dissolved in growth medium were added to duplicate wells in three to six selected concentrations. Following incubation at 37° C. for 7 to 10 days, cell sheets were fixed, stained with crystal violet and microscopic plaques enumerated as described above. Drug effects were calculated as a percentage of reduction in number of plaques in the presence of each drug concentration compared to the number observed in the absence of drug. Ganciclovir (DHPG) was used as a positive control in all experiments.
as §3

[2] = Toxicity controls: uninfected mice given test compound; assay type: in vivo; settings: 5.6, 16.7 and 50 mg/kg i.p. once daily for five days
Experimental: (§5) Compounds 1 (B=adenin-N^9-yl and guanin-N^9-yl) were evaluated in mice infected with murine cytomegalovirus (MCMV). Mice were infected intraperitonealy with sufficient MCMV to produce 90 to 100% mortality. Compounds were administered once daily for five days at doses of 5.6, 16.7 and 50 mg/kg by intraperitoneal injection in a 0.4% suspension of carboxymethylcellulose. Ganciclovir was administered in sterile water at the same doses as a positive control drug. All compounds were administered to separate groups of 15 mice each at 6, 24, and 48 hours after infection with MCMV. Groups of 10 uninfected mice also received test compounds as toxicity controls at the doses listed above.

HCMV [3] = experiment: HCMV yield reduction assay in HFF cells; assay type: cell-based, Human CMV (HCMV); settings: footnote says IC90
Experimental: as §4
The effect of compounds on the replication of HCMV also was measured using a yield reduction assay. HFF cells were planted as described above in 96-well cluster dishes, incubated overnight, medium removed and the cultures were inoculated with HCMV at a m.o.i. of 0.5 to 1 p.f.u. per cell as reported elsewhere. After virus adsorption, inoculum was replaced with 0.2 mL of fresh medium containing test compounds. The first row of 12 wells was left undisturbed and served as virus controls. Each well in the second row received an additional 0.1 mL of medium with test compound at three times the desired final concentration. The contents of the 12 wells were mixed by repeated pipetting and then serially diluted 1:3 along the remaining wells. In this manner, six compounds could be tested in duplicate on a single plate with concentrations from 100 μM to 0.14 μM. Plates were incubated at 37° C. for seven days, subjected to one cycle of freezing and thawing; aliquots from each of the eight wells of a given column were transferred to the first column of a fresh 96-well monolayer culture of HFF cells. Contents were mixed and serially diluted 1:3 across the remaining eleven columns of the secondary plate. Each column of the original primary plate was diluted across a separate plate in this manner. Cultures were incubated, plaques were enumerated, and titers calculated as described above.
as §3

HSV-1 = HSV-1 ELISA in BSC-1 cells; assay type: cell-based, herpes simplex 1 (HSV-1); settings: BSC-1 cells; ELISA
Experimental: as §4
(b) HSV-1. An enzyme-linked immunosorbent assay (ELISA) was employed to detect HSV-1. 96-well cluster dishes were planted with BSC-1 cells at 10,000 cells per well, in a total volume of 200 μL per well of MEM(E) plus 10% calf serum. After overnight incubation at 37° C., drug and HSV-1 was added at the rate of 100 PFU/well. ELISA plates were blocked with 200 μL per well of 10% calf serum and 0.05% tween in HBS. After incubation for 30 minutes, the blocking agent was rinsed two times with HBS-T. A 1:400 dilution of AP conjugated rabbit anti-HSV-1 antibody in HBS-F was added. Plates were sealed with adhesive sheet, and incubated on rocker for one hour at 37° C. Plates were developed in the dark with 100 μL per well of substrate solution containing p-nitrophenyl phosphate. Plates were read at […]. Drug effects were calculated as a percentage of the reduction in virus in the presence of each drug concentration compared to the titer obtained in the absence of drug. Acyclovir was used as a positive control in all experiments.
as §3

[4] = tested on: murine cytomegalovirus (MCMV); experiment: Mortality of mice infected with murine cytomegalovirus; assay type: in vivo; settings: 5.6 mg/kg
Experimental: as §5

| SMILES | IC50 (HFF cells) | IC50 (HIV-1) | IC50 (CEM cells) | IC50 (KB cells) | IC50 (HCMV [1]) | deaths in uninfected mice that received only drug [2] | IC90 (HCMV [3]) | IC50 (HSV-1) | IC50 (HFF cells; stationary HFF cells, visual, read-out: Cytotoxicity IC50 HFF (visual)) | IC50 (CEM cells; growing CEM cells, visual, read-out: Cytotoxicity IC50 CEM (visual)) | IC50 (KB cells; KB cell growth, read-out: Cytotoxicity IC50 KB (growth)) | efficacy against MCMV mortality compared with compound 1 (B=guanin-N^9-yl) [4] |
| --- | --- | --- | --- | --- | --- | --- | --- | --- | --- | --- | --- | --- |
| Nc1nc2c(ncn2C=C2CC2CO)c(=O)[nH]1 (stereo not drawn) [1 (B = guanine), Example 8, syn-N^9-(2-hydroxymethylcyclopropylidenemethyl)guanine] | > 100 µM | 1.3 µM | > 100 µM | > 100 µM | 2 µM | No deaths were observed | 1.8 µM |  |  |  |  |  |
| Nc1ccn(C=C2CC2CO)c(=O)n1 (stereo not drawn) [1 (B = cytosine), Example 12, syn-N^1-(2-Hydroxymethylcyclopropylidenemethyl)cytosine] | > 100 µM |  | > 100 µM | > 100 µM | 28 µM |  | 16 µM | > 100 µM |  |  |  |  |
| Nc1nc(N)c2ncn(C=C3CC3CO)c2n1 (stereo not drawn) [1 (B = 2,6-diaminopurine), Example 9, syn-2,6-Diamino-N^9-(2-hydroxymethylcyclopropylidenemethyl)purine] | > 100 µM |  | > 100 µM | > 100 µM | 15 µM |  | 18 µM | > 100 µM |  |  |  |  |
| COC(=O)[C@H](C)NP(=O)(OCC1CC1=Cn1cnc2c(N)ncnc21)Oc1ccccc1 (stereo partly drawn) [3 (B = adenine), Example 13, Methyl Phenylphosphoro-L-alaninate of syn-N^9-(2-Hydroxymethylcyclopropylidenemethyl)adenine] |  | < 0.14 µM |  |  | 0.14 µM |  | 0.21 µM | 2.5 µM | 2.5 µM | 1.1 µM | 0.5 µM |  |
| Nc1nc(Cl)c2ncn(C=C3CC3CO)c2n1 (stereo not drawn) [syn-2-amino-6-chloro-N^9-(2-hydroxymethylcyclopropylidenemethyl)purine] | > 100 µM |  |  | > 100 µM | 5 µM |  | 0.8 µM | 40 µM |  |  |  |  |
| Nc1nc(O)c2ncn(COC(CO)CO)c2n1 [ganciclovir, reference compound] |  |  |  |  |  |  |  |  |  |  |  | somewhat more effective |
| Nc1nc(NC2CC2)c2ncn(C=C3CC3CO)c2n1 (stereo not drawn) [syn-2-Amino-6-cyclopropylamino-N^9-(2-hydroxymethylcyclopropylidenemethyl)purine] | > 100 µM |  | > 100 µM | > 100 µM | 0.4 µM |  | 1 µM | 20 µM |  |  |  |  |
